# According to PubChem BioAssay (NCI):
#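 The compound was tested at five concentrations on cells cultured in 96-well plates, with a 48-hour exposure period. Abbreviation: GI50, concentration required for 50% inhibition of growth. TGI: concentration producing complete growth inhibition.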
# Columns and labels:
# Experiment in all cases: NCI tumour cell line growth inhibition, 48 h
# IGROV1 ovarian = test system: IGROV1 ovarian
# MOLT-4 leukemia = test system: MOLT-4 leukemia
# NCI-H226 lung = test system: NCI-H226 lung
# UO-31 renal = test system: UO-31 renal
# SR leukemia = test system: SR leukemia
# PC-3 prostate = test system: PC-3 prostate
# A498 renal = test system: A498 renal
# T-47D breast = test system: T-47D breast
# SK-MEL-2 melanoma = test system: SK-MEL-2 melanoma
# BT-549 breast = test system: BT-549 breast
# HCT-116 colon = test system: HCT-116 colon
# HS 578T breast = test system: HS 578T breast
# SF-295 CNS = test system: SF-295 CNS
# SNB-75 CNS = test system: SNB-75 CNS
# KM12 colon = test system: KM12 colon
# MDA-MB-435 = test system: MDA-MB-435
# MALME-3M melanoma = test system: MALME-3M melanoma
# HOP-92 NSCLC = test system: HOP-92 NSCLC
# SF-539 CNS = test system: SF-539 CNS
# HCT-15 colon = test system: HCT-15 colon
# SW-620 colon = test system: SW-620 colon
# NCI-H23 lung = test system: NCI-H23 lung
# NCI/ADR-RES ovarian = test system: NCI/ADR-RES ovarian
# NCI-H522 lung = test system: NCI-H522 lung
# SN12C renal = test system: SN12C renal
# OVCAR-3 ovarian = test system: OVCAR-3 ovarian
# ACHN renal = test system: ACHN renal
# HT29 colon = test system: HT29 colon
# TK-10 renal = test system: TK-10 renal
# EKVX NSCLC = test system: EKVX NSCLC
# HOP-62 NSCLC = test system: HOP-62 NSCLC
# MCF7 breast = test system: MCF7 breast
# A549 NSCLC = test system: A549 NSCLC
# CCRF-CEM leukemia = test system: CCRF-CEM leukemia
# HCC-2998 colon = test system: HCC-2998 colon
# UACC-257 melanoma = test system: UACC-257 melanoma
# COLO 205 colon = test system: COLO 205 colon
# 786-0 renal = test system: 786-0 renal
# RXF 393 renal = test system: RXF 393 renal
# SNB-19 CNS = test system: SNB-19 CNS
# SF-268 CNS = test system: SF-268 CNS
# OVCAR-4 ovarian = test system: OVCAR-4 ovarian
# K-562 leukemia = test system: K-562 leukemia
# CAKI-1 renal = test system: CAKI-1 renal
# HL-60(TB) leukemia = test system: HL-60(TB) leukemia
# SK-MEL-5 melanoma = test system: SK-MEL-5 melanoma
# DU-145 prostate = test system: DU-145 prostate
# MDA-MB-231 breast = test system: MDA-MB-231 breast
# SK-OV-3 ovarian = test system: SK-OV-3 ovarian
# RPMI-8226 leukemia = test system: RPMI-8226 leukemia
# UACC-62 melanoma = test system: UACC-62 melanoma
# OVCAR-5 ovarian = test system: OVCAR-5 ovarian
# MDA-MB-468 breast = test system: MDA-MB-468 breast
# U251 CNS = test system: U251 CNS
# SK-MEL-28 melanoma = test system: SK-MEL-28 melanoma
# OVCAR-8 ovarian = test system: OVCAR-8 ovarian
# LOX IMVI melanoma = test system: LOX IMVI melanoma
# NCI-H460 lung = test system: NCI-H460 lung
# M14 melanoma = test system: M14 melanoma
compound,measurement,setting,value
COc1cnc2c(c1)C(=O)c1c-2n(CCCNC(C)C)c(=O)c2cc(OC)c(OC)cc12,GI50,IGROV1 ovarian,10.8 µM
same,TGI,IGROV1 ovarian,23.3 µM
same,GI50,MOLT-4 leukemia,0.107 µM
same,TGI,MOLT-4 leukemia,5.59 µM
same,GI50,NCI-H226 lung,2.55 µM
same,TGI,NCI-H226 lung,16.6 µM
same,GI50,UO-31 renal,5.88 µM
same,TGI,UO-31 renal,19.7 µM
same,GI50,SR leukemia,0.369 µM
same,TGI,SR leukemia,4.85 µM
same,GI50,PC-3 prostate,6.53 µM
same,TGI,PC-3 prostate,30.5 µM
same,GI50,A498 renal,14.2 µM
same,TGI,A498 renal,27.5 µM
same,GI50,T-47D breast,4.97 µM
same,TGI,T-47D breast,22.2 µM
same,GI50,SK-MEL-2 melanoma,18.5 µM
same,TGI,SK-MEL-2 melanoma,37.8 µM
same,GI50,BT-549 breast,4.26 µM
same,TGI,BT-549 breast,20.6 µM
same,GI50,HCT-116 colon,1.02 µM
same,TGI,HCT-116 colon,12.8 µM
same,GI50,HS 578T breast,11.2 µM
same,TGI,HS 578T breast,32.6 µM
same,GI50,SF-295 CNS,0.29 µM
same,TGI,SF-295 CNS,12.6 µM
same,GI50,SNB-75 CNS,0.155 µM
same,TGI,SNB-75 CNS,7.49 µM
same,GI50,KM12 colon,8.02 µM
same,TGI,KM12 colon,21.9 µM
same,GI50,MDA-MB-435,6.52 µM
same,TGI,MDA-MB-435,20.3 µM
same,GI50,MALME-3M melanoma,11.5 µM
same,TGI,MALME-3M melanoma,24 µM
same,GI50,HOP-92 NSCLC,9.11 µM
same,TGI,HOP-92 NSCLC,23.9 µM
same,GI50,SF-539 CNS,1.36 µM
same,TGI,SF-539 CNS,3.76 µM
same,GI50,HCT-15 colon,1.86 µM
same,TGI,HCT-15 colon,16.3 µM
same,GI50,SW-620 colon,0.946 µM
same,TGI,SW-620 colon,20.5 µM
same,GI50,NCI-H23 lung,0.977 µM
same,TGI,NCI-H23 lung,11.3 µM
same,GI50,NCI/ADR-RES ovarian,1.73 µM
same,TGI,NCI/ADR-RES ovarian,14.6 µM
same,GI50,NCI-H522 lung,0.536 µM
same,TGI,NCI-H522 lung,12.6 µM
same,GI50,SN12C renal,4.19 µM
same,TGI,SN12C renal,> 100 µM
same,GI50,OVCAR-3 ovarian,8.99 µM
same,TGI,OVCAR-3 ovarian,22.6 µM
same,GI50,ACHN renal,1.75 µM
same,TGI,ACHN renal,13.7 µM
same,GI50,HT29 colon,1.43 µM
same,TGI,HT29 colon,10.1 µM
same,GI50,TK-10 renal,14.2 µM
same,TGI,TK-10 renal,28 µM
same,GI50,EKVX NSCLC,10.4 µM
same,TGI,EKVX NSCLC,22.4 µM
same,GI50,HOP-62 NSCLC,0.702 µM
same,TGI,HOP-62 NSCLC,7.94 µM
same,GI50,MCF7 breast,0.222 µM
same,TGI,MCF7 breast,11.9 µM
same,GI50,A549 NSCLC,5.7 µM
same,TGI,A549 NSCLC,23.8 µM
same,GI50,CCRF-CEM leukemia,0.256 µM
same,TGI,CCRF-CEM leukemia,89.9 µM
same,GI50,HCC-2998 colon,3.09 µM
same,TGI,HCC-2998 colon,16.8 µM
same,GI50,UACC-257 melanoma,12 µM
same,TGI,UACC-257 melanoma,25.2 µM
same,GI50,COLO 205 colon,5.74 µM
same,TGI,COLO 205 colon,22.6 µM
same,GI50,786-0 renal,5.51 µM
same,TGI,786-0 renal,19.1 µM
same,GI50,RXF 393 renal,1.35 µM
same,TGI,RXF 393 renal,5.71 µM
same,GI50,SNB-19 CNS,1.2 µM
same,TGI,SNB-19 CNS,12.8 µM
same,GI50,SF-268 CNS,1.31 µM
same,TGI,SF-268 CNS,19.1 µM
same,GI50,OVCAR-4 ovarian,2.5 µM
same,TGI,OVCAR-4 ovarian,7.63 µM
same,GI50,K-562 leukemia,0.496 µM
same,TGI,K-562 leukemia,22.5 µM
same,GI50,CAKI-1 renal,2.17 µM
same,TGI,CAKI-1 renal,15.7 µM
same,GI50,HL-60(TB) leukemia,3.54 µM
same,TGI,HL-60(TB) leukemia,17.2 µM
same,GI50,SK-MEL-5 melanoma,1.7 µM
same,TGI,SK-MEL-5 melanoma,11.9 µM
same,GI50,DU-145 prostate,1.27 µM
same,TGI,DU-145 prostate,13.5 µM
same,GI50,MDA-MB-231 breast,3.35 µM
same,TGI,MDA-MB-231 breast,17.9 µM
same,GI50,SK-OV-3 ovarian,1.52 µM
same,TGI,SK-OV-3 ovarian,8.18 µM
same,GI50,RPMI-8226 leukemia,1.39 µM
same,TGI,RPMI-8226 leukemia,14.9 µM
same,GI50,UACC-62 melanoma,2.43 µM
same,TGI,UACC-62 melanoma,16.1 µM
same,GI50,OVCAR-5 ovarian,12.3 µM
same,TGI,OVCAR-5 ovarian,25.5 µM
same,GI50,MDA-MB-468 breast,0.68 µM
same,TGI,MDA-MB-468 breast,7.75 µM
same,GI50,U251 CNS,0.667 µM
same,TGI,U251 CNS,17.2 µM
same,GI50,SK-MEL-28 melanoma,16 µM
same,TGI,SK-MEL-28 melanoma,29.7 µM
same,GI50,OVCAR-8 ovarian,6.05 µM
same,TGI,OVCAR-8 ovarian,22.1 µM
same,GI50,LOX IMVI melanoma,1.19 µM
same,TGI,LOX IMVI melanoma,4.6 µM
same,GI50,NCI-H460 lung,0.3 µM
same,TGI,NCI-H460 lung,11.9 µM
same,GI50,M14 melanoma,4.91 µM
same,TGI,M14 melanoma,20 µM
